The text below walks through data of patent US10314313B2, “Antimicrobial materials exhibiting synergistic efficacy” (CORNING INCORPORATED, priority 2015, dated 2019).

One series concerns marine organisms. Conditions: cited from earlier work.
Another series deals with bacteria. The conditions noted are these: cited from earlier work.
The next series relates to mold. The series can be described thus: Amount of biocide necessary to inhibit fungi growth, mold (FIG. 1). In kind it is cell-based. As for the experimental part: (§1) The amount of ZnPT and copper-containing glass necessary to inhibit fungi growth was evaluated.
Another series deals with mildew. As to the kind of experiment: Amount of biocide necessary to inhibit fungi growth, mildew (FIG. 2). In kind it is cell-based. As for the experimental part: as §1
In another series the test system is fungi. Conditions: alone.
The next series relates to algae. The conditions noted are these: in combination with Cu; cited from earlier work.

In the case of `[O-][n+]1ccccc1[S][Cu][S]c1cccc[n+]1[O-]` [CuPT], the “toxicity to marine organisms” value in the series with marine organisms is recorded as “more toxic than ZnPT”.

Consider `N#Cc1c(-c2ccc(Cl)cc2)[nH]c(C(F)(F)F)c1Br` [Tralopyril, 4-bromo-2-(4-chlorophenyl)-5-(trifluoromethyl)-1H-pyrrole-3-carbonitrile], for which, in the series with bacteria, the activity against bacteria result is “not sufficient”.

With Zinc pyrithione [ZnPT], the “amount needed to reduce mold growth” value with mold was 10 g/gallon. In addition, the “amount needed to reduce mildew growth” value in the series with mildew is recorded as 100 g/gallon. In the series with fungi, the inhibition of fungi entry is on record as “no inhibition of fungi”. In the series with algae, the “algaecide activity, concentration range” value is listed as 1-100 ppm (μg/L).
